Reference: US12478574B2, “Oral care compositions” (Colgate-Palmolive Company, priority 2016, dated 2025)

Test: Atomic Absorption analysis of top and bottom layers for Zn2+
Type: physicochemical
Details: overall 1% ZnCl2 (4800 ppm)
Method: Results are similar with Zn^2+ as the cation. […] The concentration of Zn^2+ in the top layer was measured as 1400 ppm Zn^2+ while the bottom was 8800 ppm, i.e., 6.3 fold higher concentration vs. the top.

[Cl-].[Cl-].[Zn+2] [ZnCl2]
Zn2+ concentration, bottom vs. the top: 6.3 fold
concentration of Zn2+ in the bottom layer: 8800 ppm
concentration of Zn2+ in the top layer: 1400 ppm
